ChEMBL document CHEMBL1201862, “PubChem BioAssay data set” (2004)
Activity calls are given as the source filed them. Rule as the data show it, for most assays here: active = IC50 of 10 µM or less and inactive = more.

Legend:
Assay type in all cases: functional
[1] = target: DNA dC->dU-editing enzyme APOBEC-3G (Homo sapiens, UniProt Q9HC16); assay: inhibition of APOBEC3G ssDNA deamination – biochemical, fluorescence, single-stranded DNA substrate, SAR follow-up (AID 602136); settings: read-out: IC50_Mean
Chain of DNA dC->dU-editing enzyme APOBEC-3G (Q9HC16 whole entry): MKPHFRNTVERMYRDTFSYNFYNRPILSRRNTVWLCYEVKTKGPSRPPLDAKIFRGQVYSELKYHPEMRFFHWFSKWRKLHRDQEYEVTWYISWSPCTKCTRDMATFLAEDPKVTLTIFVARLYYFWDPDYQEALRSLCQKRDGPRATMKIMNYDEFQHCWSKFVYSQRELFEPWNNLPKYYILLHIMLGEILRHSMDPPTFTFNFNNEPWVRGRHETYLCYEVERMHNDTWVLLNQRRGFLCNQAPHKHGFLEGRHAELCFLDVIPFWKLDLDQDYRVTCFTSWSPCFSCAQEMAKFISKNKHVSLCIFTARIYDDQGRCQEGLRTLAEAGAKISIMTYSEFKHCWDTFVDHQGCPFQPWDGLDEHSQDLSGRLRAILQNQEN

[2] = target: DNA dC->dU-editing enzyme APOBEC-3A (Homo sapiens, UniProt P31941); assay: SAR analysis of small molecule inhibitors of APOBEC3A DNA Deaminase via a fluorescence-based single-stranded DNA deaminase assay.; settings: read-out: IC50_Mean
Chain of DNA dC->dU-editing enzyme APOBEC-3A (P31941 whole entry): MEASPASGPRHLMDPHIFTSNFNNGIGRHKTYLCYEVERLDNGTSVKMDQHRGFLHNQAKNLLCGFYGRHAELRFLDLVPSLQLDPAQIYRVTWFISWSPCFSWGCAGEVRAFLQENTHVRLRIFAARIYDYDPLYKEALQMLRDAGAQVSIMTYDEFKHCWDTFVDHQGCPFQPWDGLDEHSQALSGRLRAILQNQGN

[3] = target: DNA (cytosine-5)-methyltransferase 1 (Homo sapiens, UniProt P26358); assay: inhibition of DNA methylation by DNMT1 – biochemical, fluorescent molecular beacon, confirmation (AID 602386)
Chain of DNA (cytosine-5)-methyltransferase 1 (P26358 whole entry): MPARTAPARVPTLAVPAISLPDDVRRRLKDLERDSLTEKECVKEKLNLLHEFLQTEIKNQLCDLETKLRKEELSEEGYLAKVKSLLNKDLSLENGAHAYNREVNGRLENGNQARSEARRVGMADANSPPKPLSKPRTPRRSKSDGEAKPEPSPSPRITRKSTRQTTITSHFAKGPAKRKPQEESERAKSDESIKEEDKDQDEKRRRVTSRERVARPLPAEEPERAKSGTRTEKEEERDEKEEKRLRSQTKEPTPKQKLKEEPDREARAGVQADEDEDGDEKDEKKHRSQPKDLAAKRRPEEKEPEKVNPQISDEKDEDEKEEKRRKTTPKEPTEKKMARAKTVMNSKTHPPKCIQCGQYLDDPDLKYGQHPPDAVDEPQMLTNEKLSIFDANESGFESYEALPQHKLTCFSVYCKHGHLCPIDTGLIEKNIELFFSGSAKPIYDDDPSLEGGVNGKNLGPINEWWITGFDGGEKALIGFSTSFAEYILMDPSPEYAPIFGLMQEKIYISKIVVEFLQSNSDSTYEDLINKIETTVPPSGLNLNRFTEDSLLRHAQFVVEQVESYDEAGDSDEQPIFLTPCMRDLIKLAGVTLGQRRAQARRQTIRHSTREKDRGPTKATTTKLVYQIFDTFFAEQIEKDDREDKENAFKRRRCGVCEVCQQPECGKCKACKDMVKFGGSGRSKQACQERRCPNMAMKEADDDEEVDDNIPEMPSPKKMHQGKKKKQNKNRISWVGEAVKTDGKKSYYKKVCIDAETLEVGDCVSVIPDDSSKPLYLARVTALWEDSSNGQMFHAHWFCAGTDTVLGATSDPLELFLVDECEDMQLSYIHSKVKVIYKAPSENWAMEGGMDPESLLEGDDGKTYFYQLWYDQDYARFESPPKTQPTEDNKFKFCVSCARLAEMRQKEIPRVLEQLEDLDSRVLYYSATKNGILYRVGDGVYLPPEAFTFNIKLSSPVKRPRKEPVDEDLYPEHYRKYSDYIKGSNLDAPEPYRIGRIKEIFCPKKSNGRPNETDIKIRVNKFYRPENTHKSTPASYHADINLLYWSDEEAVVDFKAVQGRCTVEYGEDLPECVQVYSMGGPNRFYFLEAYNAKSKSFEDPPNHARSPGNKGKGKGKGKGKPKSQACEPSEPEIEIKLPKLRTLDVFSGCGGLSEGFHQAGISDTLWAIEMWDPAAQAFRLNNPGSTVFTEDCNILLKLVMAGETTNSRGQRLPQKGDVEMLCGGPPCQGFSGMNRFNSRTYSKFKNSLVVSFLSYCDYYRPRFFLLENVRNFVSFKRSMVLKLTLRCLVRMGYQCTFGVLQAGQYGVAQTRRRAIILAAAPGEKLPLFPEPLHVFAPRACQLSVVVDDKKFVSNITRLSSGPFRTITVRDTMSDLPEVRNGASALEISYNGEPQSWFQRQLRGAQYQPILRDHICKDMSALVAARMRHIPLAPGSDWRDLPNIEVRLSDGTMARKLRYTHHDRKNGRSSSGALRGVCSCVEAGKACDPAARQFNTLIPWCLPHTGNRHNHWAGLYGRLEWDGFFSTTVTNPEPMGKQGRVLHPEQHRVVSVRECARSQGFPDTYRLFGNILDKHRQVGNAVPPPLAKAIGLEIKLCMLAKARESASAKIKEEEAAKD

SMILES	IC50 [1]	IC50 [2]	IC50 [3]
Cc1ccc(Cl)c2c1N[C@@H](c1ccccc1Br)[C@H]1CC=C[C@@H]21	> 99 µM (inactive)	> 99 µM (inactive)	–
CCc1ccc(Nc2nc(Nc3ccc(OC)cc3)nc(N3CCCC3)n2)cc1	> 99 µM (inactive)	> 99 µM (inactive)	–
Cc1ccc2cc3c(N)c4c(C)ccc(C)c4nc3nc2c1	–	–	> 99 µM (inactive)
